The record followed here is paper PMC6120190, “Identification of two distinct peptide-binding pockets in the SH3 domain of human mixed-lineage kinase 3” (The Journal of Biological Chemistry, 2018).

No end group written: not given here.

One assay deals with MLK3 SH3 domain. Kind of assay: analytical size-exclusion chromatography of MLK3 SH3-MIP fusion proteins (oligomeric state). It is filed as binding, human. To be noted: Superdex 200 10/300 GL, 25 mM Tris-HCl, pH 7.4, 500 mM NaCl; for effect of mutation on binding to MLK3 SH3 (fusion proteins, gel filtration): 750 μg/200 μl (Fig. S4); for oligomeric state by size-exclusion chromatography: MIP(1–19) fusion 2 mg/200 μl, MIP(1–13) fusions 750 μg/200 μl. From the text: Two DNA fragments encoding the SH3 domain of MLK3 (UniProt entry Q16584), MLK3 SH3(41–105) and MLK3 SH3(44–103), and four fragments encoding SH3 domain-MIP fusions, MLK3 SH3(41–105)-MIP(1–19), MLK3 SH3(41–105)-MIP(1–13), MLK3 SH3(41–105)-MIP(1–13)W10A, and MLK3 SH3(41–105)-MIP(1–13)R12A, were commercially prepared as gBlocks Gene Fragments. One fragment encoding SH3 domain fused to an NS5A (UniProt entry A0A076MER2) peptide, MLK3 SH3(41–105)-NS5A(2325–2332), was created by amplifying MLK3 SH3(41–105) with T7 promoter primer and a reverse primer (see Table S1). The subsequent insert contained MLK3 SH3(41–105) with the NS5A fragment (aa 2325–2332) at the C terminus. All coding regions were codon-optimized for E. coli expression. DNA fragments were cleaved with NdeI and BamHI-HF (New England Biolabs) and subsequently ligated into a modified version of the pET14b expression vector where the N-terminal His6 tag is followed by a SUMO protease cleavage site. The resulting DNA constructs (verified by sequencing) were transformed into E. coli strain BL21 C41(DE3). Cells were grown at 37 °C in 2× YT medium, which was supplemented with either 50 μg/ml CB or 100 μg/ml ampicillin, protein expression was induced with 0.1–0.3 mM IPTG at an A600 nm of 0.6–0.7, and cells were cultured overnight at 22 °C. Cells were harvested by centrifugation; washed with 200 mM KCl, 50 mM Tris, pH 7.4; and lysed by sonication in 25 mM Tris, pH 7.4, 200 mM KCl, 10 mM MgCl2, 10% glycerol, 1% Triton X-100, 1 mM phenylmethylsulfonyl fluoride (PMSF). Clarified supernatant was loaded onto a 5-ml HisTrap^TM HP Ni-Sepharose column (GE Healthcare), and the column was washed with 25 mM Tris, pH 7.4, 500 mM NaCl supplemented with 10 and 25 mM imidazole. Protein was eluted in the same buffer, which was supplemented with 250 and 500 mM imidazole, and the fractions were pooled together. The His6-SUMO tag was cleaved with SUMO protease while dialyzing against 25 mM Tris, pH 7.4, 500 mM NaCl, 10 mM imidazole, and the tag was removed by loading the sample back onto a nickel column. Collected fractions containing purified protein were concentrated and injected onto an S-200 size-exclusion column (GE Healthcare) equilibrated with 25 mM Tris-HCl, pH 7.4, 500 mM NaCl. To confirm the purity, collected samples were analyzed by SDS-PAGE and detected with Coomassie Brilliant Blue staining. All purified proteins were concentrated and stored at −80 °C.
To determine oligomeric state of several MLK3 SH3 fusion proteins, samples were injected into a Superdex 200 10/300 GL size-exclusion chromatography column (GE Healthcare) in two independent experiments. Two samples, MLK3 SH3(41–105)-MIP(1–19) and MLK3 SH3(41–105), at 2 mg of protein/200-μl injection, were analyzed in the first experiment (Fig. S3). Three additional samples of MLK3 SH3 domain-MIP fusion proteins were analyzed in a second experiment by injecting 750 μg of protein in 200 μl: MLK3 SH3(41–105)-MIP(1–13), MLK3 SH3(41–105)-MIP(1–13)W10A, and MLK3 SH3(41–105)-MIP(1–13)R12A (Fig. S4). Prior to the injections, the column was equilibrated with 25 mM Tris-HCl, pH 7.4, 500 mM NaCl.
Figure S3. Comparison of apo vs peptide-bound MLK3 SH3. Gel filtration chromatography of MLK3 SH3 and MLK3 SH3-MIP(1-19) fusion using Superdex 200 10/300 GL. Both constructs were expressed and purified as His6-SUMO fusions and the tag cleaved with SUMO protease. […] PS corresponds to MW standards (kDa).
Figure S4. W10 and R12 in MIP are critical for intermolecular interaction with MLK3 SH3 in vitro. Three fusion proteins composed of MLK3 SH3(41-105) domain linked via its C-terminus to one of the MIP variant: MIP(1-13) (Blue), MIP(1-13)W10A (Red), or MIP(1-13)R12A (Green), and have been analyzed using gel filtration chromatography. Corresponding sequences of MIP variants are: […] (Blue), […] (Red), and […] (Green). […] The chromatogram corresponding to MLK3 SH3 (Orange) was scaled down by approximately 33%. […]

Assay [1] concerns GST-MLK3 SH3. Kind of assay: phage ELISA of phage-displayed MIP and variants on GST-MLK3 SH3. It is filed as binding, human. To be noted: original clone/MIP, anti-M13 mAb-HRP detection, experiments in duplicate, averaged. The protocol: Figure 1. […] The presence of virions in the supernatant was determined by coating the wells of the microtiter plate with an anti-M13 mAb (anti-M13 Ab). Virions, which were retained in the microtiter plate wells, were detected with anti-M13 mAb conjugated to HRP. […] See also Fig. S1.
Figure 2. […] The MIP sequence, NH2-[…]-COOH, was fused to the N terminus of the pIII capsid protein of bacteriophage M13 ([51]) to facilitate type 3 pentavalent display. Systematic alanine replacements in the peptide were generated by Kunkel mutagenesis ([11]); Ala-1 and Ala-14 were replaced with Val. […] The signal for binding of MIP (WT) to GST-MLK3 SH3 is set as 100%, and other values are normalized to it. […] See also Fig. S2.
Screens for peptide ligands were performed following a protocol published previously ([11]). […] After three rounds of affinity selection, individual phage clones were isolated, and their binding was evaluated via phage ELISA ([11]). […]
All constructs were generated via Kunkel mutagenesis ([11], [57], [58]) and facilitated type 3 (pentavalent) display. […] All constructs were verified by DNA sequencing, and phage clones were evaluated for their binding to the target (GST-MLK3 SH3) via phage ELISA ([11]). […]

The test system of assay [2] is GST-MLK1 SH3. Kind of assay: specificity ELISA, MLK1. It is filed as binding, human. To be noted: biotinylated peptide ≈2 μM on NeutrAvidin; GST-SH3 0.15 μM, 1–1.5 h; anti-GST-HRP; triplicate (Fig. 8). On the procedure:
(§1) Figure 8. Binding of MIP and NS5A peptides to SH3 domain of other members of MLK subfamily (MLK1–4). To determine whether MIP and NS5A can interact with SH3 domains of MLK1–4 proteins, the purified GST-MLK1–4 SH3 domains were incubated with biotinylated peptides, NS5A peptide ([…]-GGG-K-biotin), MIP ([…]-K-biotin), and MIP-R12A ([…]-K-biotin), immobilized on a NeutrAvidin-coated 96-well ELISA plate. Binding of SH3 domain was detected with anti-GST antibody conjugated to HRP. […] See also Fig. S6.
(§2) Two plasmids, gifts from Dr. Gerardo Morfini, University of Illinois at Chicago, encoding a GST protein fused to either the WT or mutant Y52A of the SH3 domain of MLK3 (UniProt entry Q16584; aa 43–104), respectively, between BamHI and EcoRI sites, were transformed into the Escherichia coli strain Rosetta(DE3)pLysS. DNA fragments encoding the SH3 domain of MLK1 (UniProt entry P80192; aa 52–116), MLK2 (UniProt entry Q02779; aa 16–81), and MLK4 (UniProt entry Q5TCX8; aa 38–102) were commercially prepared as gBlocks® Gene Fragments (Integrated DNA Technologies, Inc.). All coding regions were codon-optimized for E. coli expression. DNA fragments were cleaved with BamHI-HF® and EcoRI-HF® (New England Biolabs) and subsequently ligated into pGex-2T vector. […]

For a further assay, the system named is GST-MLK2 SH3. Kind of assay: specificity ELISA, MLK2. The format is binding, human. To be noted: biotinylated peptide ≈2 μM on NeutrAvidin; GST-SH3 0.15 μM, 1–1.5 h; anti-GST-HRP; triplicate (Fig. 8). On the procedure: as §1, §2
The test system of assay [3] is GST-MLK3 SH3. Kind of assay: specificity ELISA, MLK3. It is filed as binding, human. To be noted: biotinylated peptide ≈2 μM on NeutrAvidin; GST-SH3 0.15 μM, 1–1.5 h; anti-GST-HRP; triplicate (Fig. 8). The protocol:
as §1, §2

The test system of assay [4] is GST-MLK4 SH3. Kind of assay: specificity ELISA, MLK4. The format is binding, human. To be noted: biotinylated peptide ≈2 μM on NeutrAvidin; GST-SH3 0.15 μM, 1–1.5 h; anti-GST-HRP; triplicate (Fig. 8). On the procedure: as §1, §2
The test system of the next assay is MLK3 SH3 domain Y52A. Kind of assay: binding to Y52A mutant of MLK3 SH3. The arrangement: species or system human. To be noted: data not shown. From the text:
Two plasmids, gifts from Dr. Gerardo Morfini, University of Illinois at Chicago, encoding a GST protein fused to either the WT or mutant Y52A of the SH3 domain of MLK3 (UniProt entry Q16584; aa 43–104), respectively, between BamHI and EcoRI sites, were transformed into the Escherichia coli strain Rosetta(DE3)pLysS. DNA fragments encoding the SH3 domain of MLK1 (UniProt entry P80192; aa 52–116), MLK2 (UniProt entry Q02779; aa 16–81), and MLK4 (UniProt entry Q5TCX8; aa 38–102) were commercially prepared as gBlocks® Gene Fragments (Integrated DNA Technologies, Inc.). All coding regions were codon-optimized for E. coli expression. DNA fragments were cleaved with BamHI-HF® and EcoRI-HF® (New England Biolabs) and subsequently ligated into pGex-2T vector. The resulting DNA constructs, pGex-MLK1 SH3, pGex-MLK2 SH3, and pGex-MLK4 SH3 (verified by sequencing) were transformed into E. coli strain BL21(DE3).

Another assay deals with T1, GST-MLK3 SH3(43–104) (human, UniProt Q16584 43-104).
T1 construct: also called GST-MLK3 SH3-WT; SH3 WT
T1 sequence (looked up): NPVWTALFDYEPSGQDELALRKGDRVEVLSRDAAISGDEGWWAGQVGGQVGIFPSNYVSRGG
Kind of assay: ELISA. To be noted: both partners purified.

The target of assay [5] is T2, GST-MLK1 SH3 (UniProt P80192 52-116).
T2 construct: also called SH3 domain of MLK1
T2 sequence (looked up): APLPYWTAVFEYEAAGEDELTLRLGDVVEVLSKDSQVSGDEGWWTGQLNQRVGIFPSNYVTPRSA
Kind of assay: ELISA. To be noted: both partners purified.

The target of assay [6] is T3, GST-MLK4 SH3 (UniProt Q5TCX8 38-102).
T3 construct: also called SH3 domain of MLK4
T3 sequence (looked up): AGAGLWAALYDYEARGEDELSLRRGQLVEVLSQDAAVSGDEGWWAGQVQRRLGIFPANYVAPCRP
Kind of assay: ELISA. To be noted: both partners purified.

Regarding “AIRINPNGTASRQ [MIP(1–13)W10A, SH3 domain linked via its C terminus to MIP(1–13)W10A]”, the “effect of mutation on binding to MLK3 SH3 (fusion proteins, gel filtration)” value in the assay with MLK3 SH3 domain is given as “loss of binding to MLK3 SH3”. Also, the figures for the “oligomeric state by size-exclusion chromatography” value (“oligomeric state” for short) in the assay with MLK3 SH3 domain and in the assay on MLK3 SH3 domain (listed as MIP(1-13)W10A) were “elute at a volume corresponding to the size of a monomeric fusion protein” and “elute at fraction corresponding to the size of a monomeric fusion protein”, respectively.
On to “AIRINPNGTWSAQ [MIP(1–13)R12A, SH3 domain linked via its C terminus to MIP(1–13)R12A]”, for which, in the assay on MLK3 SH3 domain, the “effect of mutation on binding to MLK3 SH3 (fusion proteins, gel filtration)” value is reported as “loss of binding to MLK3 SH3” and the “oligomeric state” value is recorded as “elute at a volume corresponding to the size of a monomeric fusion protein”. Further, the “oligomeric state” value in the assay on MLK3 SH3 domain (listed as MIP(1-13)R12A) is given as “elute at fraction corresponding to the size of a monomeric fusion protein”.
As to “AIRINPNGTWSRQ [MLK3 SH3(41–105)-MIP(1–13), SH3 domain linked via its C terminus to truncated WT ligand]”, in the assay on MLK3 SH3 domain, the “oligomeric state” value is listed as “eluted as a higher order oligomer”.
“H-IRINPNGTWSRQ-OH [single clone displaying a 12-mer peptide from ANL7 library]”: the “binding to GST-MLK3 SH3 in phage ELISA” value in the assay with GST-MLK3 SH3 [1] was “bound to the wildtype (WT) form of the MLK3 SH3 domain”.
In the case of “KKAPTPPPRRRRGGGK [NS5A peptide, reference compound]”, the “binding to MLK1 SH3” value in the assay on GST-MLK1 SH3 [2] is reported as “could bind”. Besides, the “binding to MLK2 SH3” value with GST-MLK2 SH3 was “could bind”. For the same molecule, in the assay with GST-MLK3 SH3 [3], the “binding to MLK3 SH3” value is given as “could bind”. The “binding to MLK4 SH3” value in the assay with GST-MLK4 SH3 [4] is “could bind”. The “effect of SH3 mutation Y52A on peptide binding” value in the assay with MLK3 SH3 domain Y52A is listed as “disrupts binding”.

B1: biotinylated MIP (AIRINPNGTWSRQAETVES-K-biotin) (peptide)
peptide: AIRINPNGTWSRQAETVESK
modifications: biotin on the added C-terminal K
notes: also called immobilized MIP; biotinylated MIP peptide; source: synthetic peptide
For the molecule B1, the binding result in the assay with GST-MLK3 SH3(43–104), with GST-MLK1 SH3 [5] and with GST-MLK4 SH3 [6] was “binds” throughout.
